From PubChem BioAssay (NCI)
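Growth conditions: 96-well plates. Treatment: test compound, 48 hours, 5 concentrations. Analysis: linear interpolation between bracketing concentrations; unreached endpoints set to highest concentration. TGI: concentration producing complete growth inhibition.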

Experiments:
Test in all cases: NCI-60 cell line screen, 48 h
SK-OV-3 ovarian = tested on: SK-OV-3 ovarian
MOLT-4 leukemia = tested on: MOLT-4 leukemia
NCI-H23 lung = tested on: NCI-H23 lung
LOX IMVI melanoma = tested on: LOX IMVI melanoma
RPMI-8226 leukemia = tested on: RPMI-8226 leukemia
SNB-75 CNS = tested on: SNB-75 CNS
NCI-H522 lung = tested on: NCI-H522 lung
EKVX NSCLC = tested on: EKVX NSCLC
SK-MEL-5 melanoma = tested on: SK-MEL-5 melanoma
DMS 114 small cell lung = tested on: DMS 114 small cell lung
HT29 colon = tested on: HT29 colon
A549 NSCLC = tested on: A549 NSCLC
SNB-19 CNS = tested on: SNB-19 CNS
HOP-92 NSCLC = tested on: HOP-92 NSCLC
HL-60(TB) leukemia = tested on: HL-60(TB) leukemia
NCI-H460 lung = tested on: NCI-H460 lung
TK-10 renal = tested on: TK-10 renal
OVCAR-8 ovarian = tested on: OVCAR-8 ovarian
CAKI-1 renal = tested on: CAKI-1 renal
SF-539 CNS = tested on: SF-539 CNS
UACC-257 melanoma = tested on: UACC-257 melanoma
K-562 leukemia = tested on: K-562 leukemia
SW-620 colon = tested on: SW-620 colon
RXF 393 renal = tested on: RXF 393 renal
DMS 273 small cell lung = tested on: DMS 273 small cell lung
HCC-2998 colon = tested on: HCC-2998 colon
COLO 205 colon = tested on: COLO 205 colon
OVCAR-3 ovarian = tested on: OVCAR-3 ovarian
M14 melanoma = tested on: M14 melanoma
OVCAR-4 ovarian = tested on: OVCAR-4 ovarian
UACC-62 melanoma = tested on: UACC-62 melanoma
CCRF-CEM leukemia = tested on: CCRF-CEM leukemia
DLD-1 colon = tested on: DLD-1 colon
SNB-78 CNS = tested on: SNB-78 CNS
LXFL 529 NSCLC = tested on: LXFL 529 NSCLC
U251 CNS = tested on: U251 CNS
NCI-H226 lung = tested on: NCI-H226 lung
KM12 colon = tested on: KM12 colon
SK-MEL-28 melanoma = tested on: SK-MEL-28 melanoma
IGROV1 ovarian = tested on: IGROV1 ovarian
SN12C renal = tested on: SN12C renal
OVCAR-5 ovarian = tested on: OVCAR-5 ovarian
HCT-15 colon = tested on: HCT-15 colon
M19-MEL melanoma = tested on: M19-MEL melanoma
KM20L2 colon = tested on: KM20L2 colon
XF 498 CNS = tested on: XF 498 CNS
SK-MEL-2 melanoma = tested on: SK-MEL-2 melanoma
SR leukemia = tested on: SR leukemia
ACHN renal = tested on: ACHN renal
A498 renal = tested on: A498 renal
786-0 renal = tested on: 786-0 renal
UO-31 renal = tested on: UO-31 renal
HOP-62 NSCLC = tested on: HOP-62 NSCLC
HCT-116 colon = tested on: HCT-116 colon
SF-268 CNS = tested on: SF-268 CNS
SF-295 CNS = tested on: SF-295 CNS
MALME-3M melanoma = tested on: MALME-3M melanoma

Measured: TGI

CCSc1nc2cccc([N+](=O)[O-])c2n1CC
> 100 µM: SK-OV-3 ovarian | MOLT-4 leukemia | NCI-H23 lung | LOX IMVI melanoma | RPMI-8226 leukemia | SNB-75 CNS | NCI-H522 lung | EKVX NSCLC | SK-MEL-5 melanoma | DMS 114 small cell lung | HT29 colon | A549 NSCLC | SNB-19 CNS | HOP-92 NSCLC | HL-60(TB) leukemia | NCI-H460 lung | TK-10 renal | OVCAR-8 ovarian | CAKI-1 renal | SF-539 CNS | UACC-257 melanoma | K-562 leukemia | SW-620 colon | RXF 393 renal | DMS 273 small cell lung | HCC-2998 colon | COLO 205 colon | OVCAR-3 ovarian | M14 melanoma | OVCAR-4 ovarian | UACC-62 melanoma | CCRF-CEM leukemia | DLD-1 colon | SNB-78 CNS | LXFL 529 NSCLC | U251 CNS | NCI-H226 lung | KM12 colon | SK-MEL-28 melanoma | IGROV1 ovarian

O=C1c2ccccc2OP(=O)(OCC(F)(F)F)OC1(C(F)(F)F)C(F)(F)F (stereo not drawn)
> 100 µM: SN12C renal | SK-OV-3 ovarian | MOLT-4 leukemia | NCI-H23 lung | LOX IMVI melanoma | OVCAR-5 ovarian | RPMI-8226 leukemia | SNB-75 CNS | NCI-H522 lung | EKVX NSCLC | SK-MEL-5 melanoma | DMS 114 small cell lung | HCT-15 colon | HT29 colon | A549 NSCLC | SNB-19 CNS | HOP-92 NSCLC | M19-MEL melanoma | HL-60(TB) leukemia | NCI-H460 lung | TK-10 renal | OVCAR-8 ovarian | CAKI-1 renal | SF-539 CNS | UACC-257 melanoma | KM20L2 colon | XF 498 CNS | K-562 leukemia | SW-620 colon | RXF 393 renal | SK-MEL-2 melanoma | SR leukemia | ACHN renal | DMS 273 small cell lung | A498 renal | HCC-2998 colon | COLO 205 colon | 786-0 renal | M14 melanoma | OVCAR-4 ovarian | UACC-62 melanoma | UO-31 renal | CCRF-CEM leukemia | HOP-62 NSCLC | SNB-78 CNS | LXFL 529 NSCLC | U251 CNS | NCI-H226 lung | KM12 colon | HCT-116 colon | SF-268 CNS | SK-MEL-28 melanoma | SF-295 CNS | IGROV1 ovarian

COC(=O)CC1NC(=O)[C@@H]1C(C)O (stereo partly drawn)
> 100 µM: SN12C renal | MOLT-4 leukemia | LOX IMVI melanoma | RPMI-8226 leukemia | SNB-75 CNS | EKVX NSCLC | SK-MEL-5 melanoma | DMS 114 small cell lung | HCT-15 colon | HT29 colon | A549 NSCLC | SNB-19 CNS | M19-MEL melanoma | HL-60(TB) leukemia | NCI-H460 lung | TK-10 renal | OVCAR-8 ovarian | SF-539 CNS | UACC-257 melanoma | KM20L2 colon | XF 498 CNS | K-562 leukemia | SW-620 colon | RXF 393 renal | SK-MEL-2 melanoma | SR leukemia | ACHN renal | DMS 273 small cell lung | A498 renal | HCC-2998 colon | COLO 205 colon | OVCAR-3 ovarian | 786-0 renal | M14 melanoma | OVCAR-4 ovarian | UACC-62 melanoma | UO-31 renal | CCRF-CEM leukemia | HOP-62 NSCLC | LXFL 529 NSCLC | U251 CNS | NCI-H226 lung | HCT-116 colon | SF-268 CNS | MALME-3M melanoma | SK-MEL-28 melanoma | SF-295 CNS | IGROV1 ovarian

C=CCC(N(C)C(=O)[C@H](Cc1ccccc1)NC(=O)OCc1ccccc1)P(=O)(Oc1ccccc1)Oc1ccccc1 (stereo partly drawn)
> 100 µM: SN12C renal | SK-OV-3 ovarian | MOLT-4 leukemia | NCI-H23 lung | LOX IMVI melanoma | RPMI-8226 leukemia | SNB-75 CNS | NCI-H522 lung | EKVX NSCLC | DMS 114 small cell lung | HT29 colon | A549 NSCLC | SNB-19 CNS | HOP-92 NSCLC | M19-MEL melanoma | HL-60(TB) leukemia | NCI-H460 lung | TK-10 renal | OVCAR-8 ovarian | SF-539 CNS | UACC-257 melanoma | KM20L2 colon | XF 498 CNS | K-562 leukemia | SW-620 colon | RXF 393 renal | SK-MEL-2 melanoma | SR leukemia | ACHN renal | DMS 273 small cell lung | HCC-2998 colon | COLO 205 colon | OVCAR-3 ovarian | 786-0 renal | M14 melanoma | UACC-62 melanoma | UO-31 renal | CCRF-CEM leukemia | HOP-62 NSCLC | DLD-1 colon | SNB-78 CNS | LXFL 529 NSCLC | U251 CNS | NCI-H226 lung | KM12 colon | HCT-116 colon | SF-268 CNS | MALME-3M melanoma | SK-MEL-28 melanoma | SF-295 CNS | IGROV1 ovarian
